Test results published in ChEMBL document CHEMBL1201862, “PubChem BioAssay data set” (2004).
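Tested at 5 concentrations; 48 h exposure; 96-well plates; endpoints linearly interpolated, else capped at highest concentration. GI50: concentration for 50% inhibition of growth.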 Calls of active or inactive are those of the source. No stated cut-off is given here; in the data, active = GI50 up to about 1.1 µM and inactive = higher.

How the values were obtained:
Assay in all cases: NCI tumour cell line growth inhibition, 48 h
[1] = system: LXFL 529
[2] = system: HOP-18
[3] = system: DMS-273
[4] = system: RXF 631
[5] = system: DMS-114
[6] = system: XF498
[7] = system: M19-MEL
[8] = system: KM-20L2
[9] = system: SNB-78

Measured: GI50

NS(=O)(=O)c1ccc(NC(=O)c2cccc3cc4ccccc4nc23)cc1
inactive: [1] 25 µM | [2] > 100 µM | [3] 9.44 µM | [4] 29.2 µM | [5] 97.7 µM | [6] 49.7 µM | [7] 37.2 µM | [8] 12.6 µM | [9] > 100 µM

C=C(C)C(=O)OC1C/C(CO)=C\C(O)C/C(C)=C/C2OC(=O)C(=C)C21 (centres undefined)
inactive: [1] 16.9 µM | [2] 31.3 µM | [3] 27.5 µM | [4] 18.4 µM | [5] 23.7 µM | [6] 15.2 µM | [7] 25.6 µM | [8] 30.3 µM | [9] 46.3 µM

NC(=S)N/N=C(\CC1OC(=O)c2ccccc21)c1ccc(Cl)cc1 (centres undefined)
inactive: [1] 28.8 µM | [3] 41 µM | [4] 24 µM | [5] 24.6 µM | [6] 47 µM | [7] 21.9 µM | [8] 47 µM | [9] 36.9 µM

O=S(=O)(c1ccccc1)c1nccs1
inactive: [1] > 100 µM | [2] > 100 µM | [3] > 100 µM | [5] > 100 µM | [6] > 100 µM | [7] > 100 µM | [8] > 100 µM | [9] > 100 µM

COC(=O)c1sc(C(=O)OC)c2c1C[S+]([O-])C2
inactive: [1] > 100 µM | [2] > 100 µM | [3] > 100 µM | [4] > 100 µM | [5] > 100 µM | [6] 38.7 µM | [7] > 100 µM | [8] > 100 µM | [9] > 100 µM

CNS(=O)(=O)NNS(=O)(=O)c1ccc(C)cc1
inactive: [5] > 100 µM | [7] > 100 µM | [8] > 100 µM

O=C1N[C@@H]2CCCC[C@@H]2C12CCCCC2
inactive: [1] > 100 µM | [2] > 100 µM | [4] > 100 µM | [6] > 100 µM | [7] > 100 µM | [8] > 100 µM | [9] > 100 µM

Cc1ccc2nc(/C(=C/c3ccc(/C=C(\NC(=O)c4ccccc4)c4nc5ccc(C)cc5[nH]4)c(C)c3)NC(=O)c3ccccc3)[nH]c2c1
inactive: [1] 1.5 µM | [3] 22.6 µM | [4] 19.2 µM | [5] 7.57 µM | [6] 3.76 µM | [7] 4.36 µM | [8] 20.3 µM | [9] 23.1 µM

O=C(/N=C(/Nc1ccccc1)SCS/C(=N\C(=O)c1ccco1)Nc1ccccc1)c1ccco1
inactive: [1] > 100 µM | [3] 37.8 µM | [4] 94.4 µM | [5] 52 µM | [6] 25.4 µM | [7] > 100 µM | [8] > 100 µM | [9] 37.1 µM

COc1ccccc1NC(=O)CSC(N)=O
inactive: [2] 82.8 µM | [3] 34.4 µM | [5] 46.2 µM | [6] 30.8 µM | [7] 29.2 µM | [8] > 100 µM | [9] 50.4 µM

O=C(NCCO)c1cc2c(cn1)[nH]c1ccccc12
inactive: [1] > 100 µM | [3] > 100 µM | [4] > 100 µM | [5] > 100 µM | [6] > 100 µM | [8] > 100 µM | [9] > 100 µM

CN(C)CCC1(C2=CCCC2)CC/C(=C\c2ccc3c(c2)OCO3)C1=O (centres undefined)
inactive: [1] 12.9 µM | [2] 13.6 µM | [4] 15.2 µM | [5] 14.8 µM | [7] 18.6 µM | [8] 14.2 µM | [9] 16.8 µM

Cc1oc2c(C)c3oc(=O)cc(C)c3cc2c1CN1C(=O)C2OCCOCCOCCOCCOCCO[C@H]2C1=O (some centres undefined)
inactive: [1] > 100 µM | [2] > 100 µM | [3] > 100 µM | [4] 26.7 µM | [5] > 100 µM | [7] > 100 µM | [8] > 100 µM | [9] > 100 µM

C#CCC[C@@H]1O[C@@]1(C)CC/C=C(\C)CC/C=C/C=O
inactive: [1] 20.1 µM | [3] 20 µM | [5] 14.6 µM | [6] 24.2 µM | [7] 24.2 µM | [8] 36.4 µM | [9] 25.3 µM

CC#N.O[C@@H]1CCCC[C@H]1O.O[C@@H]1CCCC[C@H]1O.[TeH2]
inactive: [1] 37.7 µM | [2] 23.3 µM | [3] 18.1 µM | [4] 22.8 µM | [5] 44.7 µM | [7] 21.5 µM | [8] 69.7 µM | [9] > 100 µM

Cc1cccc(Cl)c1NC(N)=S
inactive: [1] 31.8 µM | [2] 11.1 µM | [3] 20.5 µM | [4] 35.9 µM | [5] 18.5 µM | [7] > 100 µM | [8] 50.8 µM | [9] 77.1 µM

CCCc1nc(NC#N)nc(C(=O)NC23CC4CC(CC(C4)C2)C3)c1C
inactive: [1] > 100 µM | [2] > 100 µM | [3] > 100 µM | [5] > 100 µM | [7] > 100 µM | [8] > 100 µM | [9] > 100 µM

NNC(=O)N/N=C1/C(=O)N(c2ccc(Cl)c(Cl)c2)C(=O)C(=O)C1c1nc2ccccc2o1 (centres undefined)
inactive: [1] > 100 µM | [2] > 100 µM | [3] > 100 µM | [4] 76.4 µM | [5] > 100 µM | [7] > 100 µM | [8] > 100 µM | [9] > 100 µM

CCN(CC)c1ccc(/N=N\c2ccc(-c3nc4ccc[n+](C)c4s3)cc2)cc1
inactive: [1] 3.24 µM | [2] 16.7 µM | [3] 3.65 µM | [7] 3.55 µM | [8] 6.78 µM | [9] 4.37 µM

O=c1cccccc1NCCOCCNc1cccccc1=O
inactive: [1] > 100 µM | [2] 29 µM | [3] > 100 µM | [5] > 100 µM | [7] > 100 µM | [8] > 100 µM | [9] > 100 µM
